The values below come from US6630174B2, “Methods and compositions for retarding and eradicating infestation in trees and tree derived products” (Nisus Corporation, priority 1990, dated 2003).

For assay [1], the system named is broad spectrum of infestation. Description: Boron concentration effective against infestation. The class given is in vivo. To be noted: concentration in the wood.
A further assay deals with dry wood termites. To be noted: in vivo; cited from earlier work.

In the case of `O.O.O.O.O=BOB1OB(OB=O)OB2OB([O-])OB([O-])OB(O1)O2.[Na+].[Na+]` [DOT, disodium octaborate tetrahydrate], the “concentration generally effective for preventing or eradicating a broad spectrum of infestation” value in assay [1] stood at 2400 ppm. Regarding `[B]` [boron], in the assay with dry wood termites, the “boron concentration efficacious against dry wood termites” value is 100 parts per million. Also, the “concentration generally effective for preventing or eradicating a broad spectrum of infestation” value in assay [1] was 500 ppm.
